Our source for the IC50 values is patent publication US20260151375A1, “CDK2 INHIBITORS AND METHODS OF USING THE SAME” (Cedilla Therapeutics, Inc., priority 2022, published 2026).

Experiment [1] relates to Kuramochi cells. As to the kind of experiment: IncuCyte Kuramochi Assay (cell proliferation). The conditions noted are these: 72 h, Kuramochi cells labeled with mApple-H2B, cell count, read-out: IncuCyte - Kuramochi RB-WT: IC50. The experiment is classed as cell-based. The method in brief:
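Cells imaged at 0 and 72 h after compound treatment (10 points, ½ log dilution, 20 μM top), with fluorescent nuclei counted. Fold change in count was normalized to DMSO wells and fitted to dose-response curves to give GI50.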

In experiment [2] the target is T1, CDK2/Cyclin E1 (Homo sapiens, UniProt P24941).
T1 construct: purchased 14-475
The experiment is described as follows: Caliper Assay (LabChip EZ Reader mobility shift assay), inhibition of CDK2/Cyclin E1 activity. The class given is biochemical. The conditions noted are these: 2.5 nM CDK2/Cyclin E1(14-475), 100 μM ATP, 30 min preincubation; read-out: Caliper Assay (CDK2/CCNE1): IC50. The method in brief:
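Compounds were preincubated 30 min with CDK2/Cyclin E1(14-475), then run for 100 min with 2.5 nM enzyme, 100 μM ATP and 1.5 μM 5-FAM-QSPKKG peptide in HEPES pH 7.5 (final). Reactions were EDTA-stopped and substrate-to-product conversion read by mobility shift. IC50 came from a four-parameter fit.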

`O=C(c1cncs1)N1CC(c2nnc(Cc3ccc(Cl)c(Cl)c3)o2)C2(C1)CN(c1nccc(C(F)(F)F)n1)C2` (stereo not shown) [I-99]: the IC50 in experiment [1] and in experiment [2] was over 10 µM each time.

`CC(c1coc(C2CCCC2)n1)c1nc(C2CN(C(=O)c3cncs3)CC23CN(C(=O)[C@H]2CC2(C)C)C3)no1` (stereo partly shown) [I-100]: the IC50 was 5 to 10 µM in experiment [1] and 0.1 to 1 µM in experiment [2].

Turning to `CC1(C)C[C@@H]1C(=O)N1CC2(C1)CN(c1cccc3ncsc13)CC2c1nnc(Cc2ccc(Cl)c(Cl)c2)o1` (stereo partly drawn) [I-101, (6-(benzo[d]thiazol-7-yl)-8-(5-(3,4-dichlorobenzyl)-1,3,4-oxadiazol-2-yl)-2,6-diazaspiro[3.4]octan-2-yl)((S)-2,2-dimethylcyclopropyl)methanone], the IC50 in experiment [1] and in experiment [2] was over 10 µM each time.

As for `CC(C)(c1cccc(C2CCOCC2)n1)c1nnc(C2CN(C(=O)c3cncs3)CC23CN(C(=O)[C@H]2CC2(C)C)C3)o1` (stereo partly shown) [I-102], the IC50 in experiment [1] is over 10 µM; in experiment [2], 0.01 to 0.1 µM.

Take `Cc1nc(C)c(C(=O)N2CC(c3nnc(C(F)(F)c4ccc(Cl)c(Cl)c4)o3)C3(C2)CN(C(=O)[C@H]2CC2(F)F)C3)s1` (stereo partly drawn) [I-103, (8-(5-((3,4-dichlorophenyl)difluoromethyl)-1,3,4-oxadiazol-2-yl)-2-((R)-2,2-difluorocyclopropane-1-carbonyl)-2,6-diazaspiro[3.4]octan-6-yl)(2,4-dimethylthiazol-5-yl)methanone]: the IC50 in experiment [1] and in experiment [2] was over 10 µM throughout.

For `Cc1nc(C)c(C(=O)N2CC(c3nnc(C(C)c4cccc(C5(C(F)(F)F)CC5)n4)o3)C3(C2)CN(C(=O)[C@H]2CC2(C)C)C3)s1` (stereo partly shown) [I-104], the IC50 in experiment [1] is over 10 µM; in experiment [2] it was 0.1 to 1 µM.

For the molecule `CC1(C)C[C@@H]1C(=O)N1CC2(C1)CN(c1ncnc3ncsc13)CC2c1nnc(Cc2cccc(C3CCOCC3)n2)o1` (stereo partly drawn) [I-105, ((S)-2,2-dimethylcyclopropyl)(8-(5-((6-(tetrahydro-2H-pyran-4-yl)pyridin-2-yl)methyl)-1,3,4-oxadiazol-2-yl)-6-(thiazolo[4,5-d]pyrimidin-7-yl)-2,6-diazaspiro[3.4]octan-2-yl)methanone], the IC50 in experiment [1] and in experiment [2] was over 10 µM throughout.

For the molecule `O=C(c1cncs1)N1CC(c2nc3ccc(Oc4ccccc4)cc3o2)C2(C1)CN(C(=O)[C@H]1CC1(F)F)C2` (stereo partly drawn) [I-144, (2-((R)-2,2-difluorocyclopropane-1-carbonyl)-8-(6-phenoxybenzo[d]oxazol-2-yl)-2,6-diazaspiro[3.4]octan-6-yl)(thiazol-5-yl)methanone], the IC50 in experiment [1] is over 10 µM; in experiment [2], 1 to 10 µM.

As for `O=C(c1cncs1)N1CC(c2nc3cc(Oc4ccccc4)ccc3o2)C2(C1)CN(C(=O)[C@H]1CC1(F)F)C2` (stereo partly drawn) [I-145, (2-((R)-2,2-difluorocyclopropane-1-carbonyl)-8-(5-phenoxybenzo[d]oxazol-2-yl)-2,6-diazaspiro[3.4]octan-6-yl)(thiazol-5-yl)methanone], the IC50 in experiment [1] and in experiment [2] was over 10 µM throughout.

Take `CC(C)(C#N)C(=O)N1CC2(CN(Cc3cnccn3)CC2c2nnc(C(F)(F)c3ccc(Cl)c(Cl)c3)o2)C1` (stereo not shown) [I-146]: the figures for the IC50 in experiment [1] and in experiment [2] were over 10 µM and over 100 µM, respectively.

For `O=C(C1CNC1)N1CC(c2nnc(C(F)(F)c3ccc(Cl)c(Cl)c3)o2)C2(C1)CN(C(=O)[C@H]1CC1(F)F)C2` (stereo partly shown) [I-147], the IC50 in experiment [1] was over 10 µM; in experiment [2], over 100 µM.

Consider `O=C([C@H]1CC1(F)F)N1CC2(C1)CN(C(=O)N1CCOCC1)CC2c1nnc(C(F)(F)c2ccc(Cl)c(Cl)c2)o1` (stereo partly drawn) [I-148, (8-(5-((3,4-dichlorophenyl)difluoromethyl)-1,3,4-oxadiazol-2-yl)-2-((R)-2,2-difluorocyclopropane-1-carbonyl)-2,6-diazaspiro[3.4]octan-6-yl)(morpholino)methanone], for which the IC50 in experiment [1] and in experiment [2] was over 10 µM throughout.

For `O=C(c1nncs1)N1CC(c2nnc(C(F)(F)c3ccc(Cl)c(Cl)c3)o2)C2(C1)CN(C(=O)[C@H]1CC1(F)F)C2` (stereo partly shown) [I-149], the IC50 in experiment [1] and in experiment [2] was over 10 µM throughout.

In the case of `O=C(C1CCNCC1)N1CC(c2nnc(C(F)(F)c3ccc(Cl)c(Cl)c3)o2)C2(C1)CN(C(=O)[C@H]1CC1(F)F)C2` (stereo partly drawn) [I-150, (8-(5-((3,4-dichlorophenyl)difluoromethyl)-1,3,4-oxadiazol-2-yl)-2-((R)-2,2-difluorocyclopropane-1-carbonyl)-2,6-diazaspiro[3.4]octan-6-yl)(piperidin-4-yl)methanone], the IC50 in experiment [1] and in experiment [2] was over 10 µM in each case.

Consider `O=C(c1noc2cc(Cl)ccc12)N1CC(c2nnc(C(F)(F)c3ccc(Cl)c(Cl)c3)o2)C2(C1)CN(C(=O)[C@H]1CC1(F)F)C2` (stereo partly shown) [I-152], for which the IC50 in experiment [1] and in experiment [2] was over 10 µM in each case.

Regarding `O=C(C1COC1)N1CC(c2nnc(C(F)(F)c3ccc(Cl)c(Cl)c3)o2)C2(C1)CN(C(=O)[C@H]1CC1(F)F)C2` (stereo partly shown) [I-153], the IC50 in experiment [1] and in experiment [2] was over 10 µM in each case.

For the molecule `O=C(c1cncs1)N1CC(c2nnc(C(F)(F)c3ccc(Cl)c(Cl)c3)o2)C2(C1)CN(C1CCOC1)C2` (stereo not shown) [I-154, (8-(5-((3,4-dichlorophenyl)difluoromethyl)-1,3,4-oxadiazol-2-yl)-2-(tetrahydrofuran-3-yl)-2,6-diazaspiro[3.4]octan-6-yl)(thiazol-5-yl)methanone], the IC50 in experiment [1] and in experiment [2] was over 10 µM throughout.

For the molecule `O=C(c1ccn[nH]1)N1CC(c2nnc(C(F)(F)c3ccc(Cl)c(Cl)c3)o2)C2(C1)CN(C(=O)[C@H]1CC1(F)F)C2` (stereo partly shown) [I-155], the IC50 in experiment [1] and in experiment [2] was over 10 µM throughout.

On to `O=C(c1noc2ccccc12)N1CC(c2nnc(C(F)(F)c3ccc(Cl)c(Cl)c3)o2)C2(C1)CN(C(=O)[C@H]1CC1(F)F)C2` (stereo partly drawn) [I-156, benzo[d]isoxazol-3-yl(8-(5-((3,4-dichlorophenyl)difluoromethyl)-1,3,4-oxadiazol-2-yl)-2-((R)-2,2-difluorocyclopropane-1-carbonyl)-2,6-diazaspiro[3.4]octan-6-yl)methanone], for which the IC50 in experiment [1] and in experiment [2] was over 10 µM in each case.

For `O=C(c1cncs1)N1CC(c2nnc(C(F)(F)c3ccc(Cl)c(Cl)c3)o2)C2(C1)CN(C(=O)[C@H]1CCCO1)C2` (stereo partly shown) [I-157], the IC50 in experiment [1] is over 10 µM; in experiment [2] it was 1 to 10 µM.

Take `O=C(C1CCOCC1)N1CC(c2nnc(C(F)(F)c3ccc(Cl)c(Cl)c3)o2)C2(C1)CN(C(=O)[C@H]1CC1(F)F)C2` (stereo partly shown) [I-158]: the IC50 in experiment [1] and in experiment [2] was over 10 µM each time.

Turning to `CC(C)(C#N)C(=O)N1CC2(CN(Cc3cncs3)CC2c2nnc(C(F)(F)c3ccc(Cl)c(Cl)c3)o2)C1` (stereo not shown) [I-159, 3-(8-(5-((3,4-dichlorophenyl)difluoromethyl)-1,3,4-oxadiazol-2-yl)-6-(thiazol-5-ylmethyl)-2,6-diazaspiro[3.4]octan-2-yl)-2,2-dimethyl-3-oxopropanenitrile], the IC50 in experiment [1] and in experiment [2] was over 10 µM throughout.

For `O=C(C#CCO)N1CC(c2nnc(C(F)(F)c3ccc(Cl)c(Cl)c3)o2)C2(C1)CN(C(=O)[C@H]1CC1(F)F)C2` (stereo partly shown) [I-160], the IC50 in experiment [1] and in experiment [2] was over 10 µM each time.

In the case of `O=C(c1cc(C(F)(F)F)n[nH]1)N1CC(c2nnc(C(F)(F)c3ccc(Cl)c(Cl)c3)o2)C2(C1)CN(C(=O)[C@H]1CC1(F)F)C2` (stereo partly shown) [I-161], the IC50 in experiment [1] was 5 to 10 µM; in experiment [2], over 10 µM.

Turning to `O=C(c1[nH]ncc1F)N1CC(c2nnc(C(F)(F)c3ccc(Cl)c(Cl)c3)o2)C2(C1)CN(C(=O)[C@H]1CC1(F)F)C2` (stereo partly shown) [I-162], the IC50 in experiment [1] and in experiment [2] was over 10 µM in each case.

Consider `O=C(c1[nH]ncc1C(F)(F)F)N1CC(c2nnc(C(F)(F)c3ccc(Cl)c(Cl)c3)o2)C2(C1)CN(C(=O)[C@H]1CC1(F)F)C2` (stereo partly shown) [I-163], for which the IC50 in experiment [1] and in experiment [2] was over 10 µM throughout.

As for `O=C(c1cncs1)N1CC(c2nnc(C(F)(F)c3ccc(Cl)c(Cl)c3)o2)C2(C1)CN(C(=O)[C@@H]1CCCO1)C2` (stereo partly shown) [I-164], the IC50 in experiment [1] and in experiment [2] was over 10 µM throughout.

Take `O=C(c1cnc2ccccc2n1)N1CC(c2nnc(C(F)(F)c3ccc(Cl)c(Cl)c3)o2)C2(C1)CN(C(=O)[C@H]1CC1(F)F)C2` (stereo partly shown) [I-165]: the IC50 in experiment [1] was over 10 µM; in experiment [2], 1 to 10 µM.

Consider `O=C(c1nccnc1O)N1CC(c2nnc(C(F)(F)c3ccc(Cl)c(Cl)c3)o2)C2(C1)CN(C(=O)[C@H]1CC1(F)F)C2` (stereo partly shown) [I-166], for which the IC50 in experiment [1] and in experiment [2] was over 10 µM in each case.

Turning to `O=C(c1cn[nH]c1C(F)(F)F)N1CC(c2nnc(C(F)(F)c3ccc(Cl)c(Cl)c3)o2)C2(C1)CN(C(=O)[C@H]1CC1(F)F)C2` (stereo partly drawn) [I-167, (8-(5-((3,4-dichlorophenyl)difluoromethyl)-1,3,4-oxadiazol-2-yl)-2-((R)-2,2-difluorocyclopropane-1-carbonyl)-2,6-diazaspiro[3.4]octan-6-yl)(5-(trifluoromethyl)-1H-pyrazol-4-yl)methanone], the IC50 in experiment [1] and in experiment [2] was over 10 µM in each case.

`O=C(c1cncs1)N1CC(c2nnc(C(F)(F)c3ccc(Cl)c(Cl)c3)o2)C2(C1)CN(C(=O)[C@H]1CCCN1)C2` (stereo partly drawn) [I-169 1st, 2-(2-(D-prolyl)-6-(thiazole-5-carbonyl)-2,6-diazaspiro[3.4]octan-8-yl)-5-((3,4-dichlorophenyl)difluoromethyl)-1,3,4-oxadiazole]: the IC50 is 5 to 10 µM in experiment [1] and over 10 µM in experiment [2].

On to `O=C(c1cncs1)N1CC(c2nnc(C(F)(F)c3ccc(Cl)c(Cl)c3)o2)C2(C1)CN(C(=O)[C@@H]1CCCN1)C2` (stereo partly shown) [I-169 2nd], for which the IC50 in experiment [1] and in experiment [2] was over 10 µM in each case.
